Experimental data reported in patent US6376673B1, “Piperidine derivatives as neurotransmitter re-uptake inhibitors” (Neurosearch A/S, priority 1997, dated 2002).

Target: T1, dopamine transporter (Rattus norvegicus, UniProt P23977)
T1 construct: Corpus striatum from male Wistar rats (150-200 g) is homogenized; from tissue; host or cells: rat corpus striatum membrane pellet
Experiment: In vitro inhibition of 3H-WIN 35428 binding
Conditions: corpus striatum membranes of male Wistar rats; 1 nM 3H-WIN 35428, 60 min at 2° C.; read-out: In Vitro IC50 (inhibition of specific binding of 3H-WIN 35428)
Excerpt: The compounds of the present invention have been tested for their ability to bind to the dopamine transporter in the following tests for in vitro inhibition of ^3H-WIN 35428.
In vitro Inhibition of ^3H-WIN 35428 Binding
Dopamine transporters/uptake sites on nerve terminals presumably function to terminate neuronal signaling by removing dopamine from the synaptic cleft. The activity or presence of the dopamine transporter integral protein can be measured in vitro with synaptosomal uptake of ^3H-dopamine or membrane binding assays with ^3H-ligands known to bind to the transporter.
Numerous ligands of several structural types have been reported to bind at the dopamine uptake site, but it remains questionable whether their binding sites are identical to that of cocaine. A structural analog og cocaine, ^3H-WIN 35428, binds selectively and with high affinity to the dopamine transporter complex.
Tissue preparation: Preparations are performed at 0-4° C. unless otherwise indicated. […]
Assay: Aliquots of 0.5 ml tissue are added to 25 ml of test solution and 25 ml of ^3H-WIN 35428 (1 nM, final concentration), mixed and incubated for 60 min at 2° C. Non-specific binding is determined using cocaine (30 mM, final concentration). […] The amount of radioactivity on the filters is determined by conventional liquid scintillation counting. […]

T1 sequence (P23977 whole entry): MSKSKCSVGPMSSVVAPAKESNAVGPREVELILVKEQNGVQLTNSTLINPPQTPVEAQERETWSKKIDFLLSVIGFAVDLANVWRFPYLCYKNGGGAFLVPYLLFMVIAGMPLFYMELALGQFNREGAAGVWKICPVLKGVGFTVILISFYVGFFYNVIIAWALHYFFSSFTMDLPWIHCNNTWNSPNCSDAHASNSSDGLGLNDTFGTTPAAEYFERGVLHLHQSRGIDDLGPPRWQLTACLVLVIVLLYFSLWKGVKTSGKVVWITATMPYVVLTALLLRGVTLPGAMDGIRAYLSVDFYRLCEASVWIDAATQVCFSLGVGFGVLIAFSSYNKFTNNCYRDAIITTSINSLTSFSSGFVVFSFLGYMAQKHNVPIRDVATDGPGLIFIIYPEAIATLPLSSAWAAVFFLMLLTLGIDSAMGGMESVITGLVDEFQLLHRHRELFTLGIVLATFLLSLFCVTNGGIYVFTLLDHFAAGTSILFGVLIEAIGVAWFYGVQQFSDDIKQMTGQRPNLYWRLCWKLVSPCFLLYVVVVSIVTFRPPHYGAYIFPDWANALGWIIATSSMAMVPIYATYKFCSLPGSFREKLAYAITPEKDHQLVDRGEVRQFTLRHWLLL

Q: `CON=CC1CN(C)CCC1c1ccc(Cl)c(Cl)c1` (stereo not shown) [1-Metyl-3-methoxyiminomethyl-4-(3,4-dichlorophenyl)piperidine] was tested. Which IC50 did it give?
A: 16 nM
